Laboratory results published in patent publication US5204373A, “Farnesylated tetrahydro-naphthalenols as hypolipidemic agents” (Bristol-Myers Squibb Company, priority 1991, dated 1993).

Key:
6-week old male chickens = experiment: In vivo lipid metabolism evaluation in normocholesterolemic chickens (serum cholesterol pools); parameters: species or system chicken; settings: test compound 50 ppm in corn-soybean diet for four weeks; for LDL Cholesterol: control 62.7 ± 2.5; for HDL Cholesterol: control 99.9 ± 1.9; for Total Cholesterol: fasted 36 h, refed 48 h, control 183.0 ± 4.5
Protocol: Serum cholesterol, triglycerides, low density and high density liproprotein cholesterol as determined in drug treated birds.
(§1) Newborn male chicks (8 for each group) were raised on a standard corn-soybean based control diet for two weeks and then switched to either control or experimental diets for four weeks. Drug treatment consisted of the addition of test compounds to the corn-soybean-based diet at a concentration of 50 ppm. At the end of the feeding period, all the birds were fasted (36 hours) and refed (48 hours) to induce cholesterolgenic enzymes prior to sacrifice. The specific activity of HMGR, total serum cholesterol levels, LDL cholesterol and HDL cholesterol pools were determined using previously described methods (Qureshi et al., J. Biol. Chem., 261, 10544 (1986)) (Table 1).

[1] = tested on: β-Hydroxy-β-Methylglutaryl Coenzyme A Reductase (HMGR); experiment: Ex vivo HMGR suppression in the liver of drug dosed chickens; parameters: species or system chicken; settings: test compound 50 ppm in diet for four weeks, control 33.8
Protocol: β-Hydroxy-β-Methylglutaryl Coenzyme A Reductase (HMGR) activity in the liver of drug dosed chickens.
as §1

LDL = LDL antioxidant assay (conjugated diene formation); format: biochemical, rabbit; settings: for LR (end of lag phase of LDL oxidation) vs control: whole rabbit plasma incubated with drug, LDL isolated, time of first derivative maximum of conjugated diene kinetic curve
Protocol: Inhibition of LDL oxidation as measured by conjugated diene formation.
Whole rabbit plasma was incubated with either vehicle or drug, and the LDL was isolated by ultracentrifugation. EDTA was removed by dialysis and analysis of co-dependent LDL oxidation was determined by conjugated diene formation using the protocol established by Esterbauer et al., (Free Radical Res. Commun. 6(1), 75-75 (1989)). The time of the first derivative maximum in the kinetic curves, corresponding to the end of the lag phase (LR) of the reaction, indicates both the intrinsic effectiveness of the antioxidant combined with its local concentration with in the LDL particles. […] Substitution of methylene for oxygen at position 1 would diminish antioxidant capacity.

Structure (SMILES)	LDL Cholesterol (6-week old male chickens)	HDL Cholesterol (6-week old male chickens)	Total Cholesterol (6-week old male chickens)	HMGR (specific activity) [1]	LR (end of lag phase of LDL oxidation) vs control (LDL)	LDL antioxidation properties (in words) (LDL; rabbit LDL, conjugated diene formation)
CC(C)=CCC/C(C)=C/CC/C(C)=C/CCC1(C)CCc2cc(O)ccc2O1 (centres unmarked) [Tocotrienol, reference compound]	42.8 ± 2.8	91.7 ± 1.0	149.8 ± 4.5	13.6	2.01	
CC(C)=CCC/C(C)=C/CC/C(C)=C/CCC1(C)CCc2cc(O)ccc2C1 (centres unmarked) [Compound 12, 5,6,7,8-Tetrahydro-6-Methyl-6-(4,8,12-Trimethyl-3(E), (7E), 11-tridecatrienyl)-2-Naphthalenol]	28.4 ± 1.3	85.3 ± 1.3	125.5 ± 3.0	14.6	1.32	exhibits LDL antioxidation properties
